PubChem BioAssay (NCI)
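Grown in 96-well plates, cells were treated for 48 hours with each compound at five concentrations. Insufficient inhibition: endpoint recorded as highest concentration tested. Abbreviation: GI50, concentration required for 50% inhibition of growth. TGI is the concentration that stops growth completely.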

Legend:
Test in all cases: NCI-60 cell line screen, 48 h
[1] = tested on: 786-0 renal
[2] = tested on: NCI-H226 lung
[3] = tested on: CAKI-1 renal
[4] = tested on: NCI-H522 lung
[5] = tested on: MALME-3M melanoma
[6] = tested on: SK-MEL-5 melanoma
[7] = tested on: NCI-H460 lung
[8] = tested on: NCI/ADR-RES ovarian
[9] = tested on: PC-3 prostate
[10] = tested on: SF-295 CNS
[11] = tested on: SN12C renal
[12] = tested on: SNB-19 CNS
[13] = tested on: A549 NSCLC
[14] = tested on: DU-145 prostate
[15] = tested on: OVCAR-8 ovarian
[16] = tested on: HT29 colon
[17] = tested on: U251 CNS
[18] = tested on: SF-539 CNS
[19] = tested on: BT-549 breast
[20] = tested on: OVCAR-3 ovarian
[21] = tested on: HS 578T breast
[22] = tested on: UACC-257 melanoma
[23] = tested on: SK-MEL-2 melanoma
[24] = tested on: NCI-H23 lung
[25] = tested on: SK-OV-3 ovarian
[26] = tested on: M14 melanoma
[27] = tested on: ACHN renal
[28] = tested on: RXF 393 renal
[29] = tested on: MDA-MB-435
[30] = tested on: IGROV1 ovarian

**Q.** With CC(=O)Nc1nc(-c2ccc(N3CCN(C)CC3)c(NS(=O)(=O)c3ccc(C(F)(F)F)cc3)c2)cs1 as the compound, how does the TGI [1] read?
**A.** 12.6 µM

**Q.** And the GI50 [2]?
**A.** 8.25 µM

**Q.** What about the TGI [2] of the same compound?
**A.** 19.1 µM

**Q.** What about the GI50 [3] of the same compound?
**A.** 3.91 µM

**Q.** And the TGI [3]?
**A.** 11 µM

**Q.** And the GI50 [4]?
**A.** 3.62 µM

**Q.** What about the TGI [4] of the same compound?
**A.** 10.8 µM

**Q.** What about the GI50 [5] of the same compound?
**A.** 6.73 µM

**Q.** What about the TGI [5] of the same compound?
**A.** 13.5 µM

**Q.** And the GI50 [6]?
**A.** 6 µM

**Q.** And the TGI [6]?
**A.** 12.5 µM

**Q.** And the GI50 [7]?
**A.** 6.77 µM

**Q.** And the TGI [7]?
**A.** 14.8 µM

**Q.** And the GI50 [8]?
**A.** 6.97 µM

**Q.** What about the TGI [8] of the same compound?
**A.** 21.6 µM

**Q.** What about the GI50 [9] of the same compound?
**A.** 6.33 µM

**Q.** And the TGI [9]?
**A.** 17.2 µM

**Q.** And the GI50 [10]?
**A.** 6.51 µM

**Q.** And the TGI [10]?
**A.** 13.4 µM

**Q.** And the GI50 [11]?
**A.** 6.19 µM

**Q.** What about the TGI [11] of the same compound?
**A.** 12.7 µM

**Q.** And the GI50 [12]?
**A.** 7.82 µM

**Q.** And the TGI [12]?
**A.** 14.8 µM

**Q.** What about the GI50 [13] of the same compound?
**A.** 7.24 µM

**Q.** What about the TGI [13] of the same compound?
**A.** 16.3 µM

**Q.** And the GI50 [14]?
**A.** 6.51 µM

**Q.** What about the TGI [14] of the same compound?
**A.** 14.5 µM

**Q.** And the GI50 [15]?
**A.** 8.2 µM

**Q.** What about the TGI [15] of the same compound?
**A.** 23.9 µM

**Q.** And the GI50 [16]?
**A.** 4.77 µM

**Q.** What about the TGI [16] of the same compound?
**A.** 16 µM

**Q.** And the GI50 [17]?
**A.** 7.52 µM

**Q.** And the TGI [17]?
**A.** 15 µM

**Q.** And the GI50 [18]?
**A.** 4.12 µM

**Q.** And the TGI [18]?
**A.** 10.8 µM

**Q.** And the GI50 [19]?
**A.** 5.83 µM

**Q.** And the TGI [19]?
**A.** 12.8 µM

**Q.** And the GI50 [20]?
**A.** 3.06 µM

**Q.** What about the TGI [20] of the same compound?
**A.** 10.6 µM

**Q.** And the GI50 [21]?
**A.** 5.77 µM

**Q.** What about the TGI [21] of the same compound?
**A.** 20.2 µM

**Q.** What about the GI50 [22] of the same compound?
**A.** 6.76 µM

**Q.** What about the TGI [22] of the same compound?
**A.** 14 µM

**Q.** What about the GI50 [23] of the same compound?
**A.** 7.27 µM

**Q.** What about the TGI [23] of the same compound?
**A.** 14.4 µM

**Q.** What about the GI50 [24] of the same compound?
**A.** 8.11 µM

**Q.** And the TGI [24]?
**A.** 15.8 µM

**Q.** What about the GI50 [25] of the same compound?
**A.** 10 µM

**Q.** And the TGI [25]?
**A.** 19.6 µM

**Q.** What about the GI50 [26] of the same compound?
**A.** 7.25 µM

**Q.** And the TGI [26]?
**A.** 17.1 µM

**Q.** What about the GI50 [27] of the same compound?
**A.** 4.67 µM

**Q.** And the TGI [27]?
**A.** 11.1 µM

**Q.** And the GI50 [28]?
**A.** 2.61 µM

**Q.** What about the TGI [28] of the same compound?
**A.** 9.24 µM

**Q.** What about the GI50 [29] of the same compound?
**A.** 4.08 µM

**Q.** What about the TGI [29] of the same compound?
**A.** 12.6 µM

**Q.** What about the GI50 [30] of the same compound?
**A.** 6.41 µM

**Q.** What about the TGI [30] of the same compound?
**A.** 13 µM
